Measured values from US20080171716A1, “NUCLEIC ACID MODULATION OF TOLL-LIKE RECEPTOR-MEDIATED IMMUNE STIMULATION” (Protiva Biotherapeutics, Inc., priority 2006, published 2008).

Target: T1, TLR9 (Mus musculus, UniProt Q9EQU3)
T1 construct: endogenous in cells; host or cells: Flt3L-derived dendritic cells cultured from bone marrow of female Balb/C mice
T1 sequence (Q9EQU3 26-1032): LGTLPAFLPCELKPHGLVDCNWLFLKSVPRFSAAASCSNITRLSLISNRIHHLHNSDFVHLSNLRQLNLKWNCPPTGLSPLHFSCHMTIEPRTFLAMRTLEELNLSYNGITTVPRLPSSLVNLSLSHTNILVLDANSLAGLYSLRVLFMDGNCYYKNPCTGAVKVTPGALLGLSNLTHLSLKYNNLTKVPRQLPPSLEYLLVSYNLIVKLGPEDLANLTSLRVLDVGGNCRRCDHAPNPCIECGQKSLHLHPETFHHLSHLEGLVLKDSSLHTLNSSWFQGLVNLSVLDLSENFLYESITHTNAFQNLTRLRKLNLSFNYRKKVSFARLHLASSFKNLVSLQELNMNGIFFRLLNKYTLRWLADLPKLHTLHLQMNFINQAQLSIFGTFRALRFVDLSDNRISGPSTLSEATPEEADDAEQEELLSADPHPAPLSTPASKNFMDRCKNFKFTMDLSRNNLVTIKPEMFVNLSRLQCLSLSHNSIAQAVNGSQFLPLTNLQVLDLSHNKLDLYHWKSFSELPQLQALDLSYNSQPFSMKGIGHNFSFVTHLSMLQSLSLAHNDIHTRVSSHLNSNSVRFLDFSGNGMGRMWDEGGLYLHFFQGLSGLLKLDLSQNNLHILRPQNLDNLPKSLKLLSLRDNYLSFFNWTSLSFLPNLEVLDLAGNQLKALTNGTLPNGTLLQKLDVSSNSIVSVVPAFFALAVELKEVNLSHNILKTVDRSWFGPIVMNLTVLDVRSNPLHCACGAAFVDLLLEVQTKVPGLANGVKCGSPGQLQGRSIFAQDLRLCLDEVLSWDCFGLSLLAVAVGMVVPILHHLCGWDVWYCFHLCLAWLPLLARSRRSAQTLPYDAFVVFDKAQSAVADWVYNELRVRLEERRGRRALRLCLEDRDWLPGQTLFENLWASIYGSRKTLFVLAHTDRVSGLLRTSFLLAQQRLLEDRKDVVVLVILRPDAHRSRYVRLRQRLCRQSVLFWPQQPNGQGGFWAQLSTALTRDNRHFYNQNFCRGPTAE
Test: CpG ODN (TLR9 agonist)-induced IFN-α in murine Flt3L-derived dendritic cells
Type: cell-based
Conditions: murine Flt3L cultures; phosphodiester backbone; formulated in lipid nanoparticles
Description: Lipid Encapsulation of RNA and ODN. RNA or ODN were encapsulated in liposomes by a process of spontaneous vesicle formation as described in Judge et al., supra, and Jeffs et al., Pharm. Res., 22:362-372 (2005).
Flt3L-derived dendritic cells (DC) were generated as described in Gilliet et al., J. Exp. Med., 195:953-958 (2002), using 100 ng/ml murine Flt3-ligand (Peprotech) supplemented media. Femurs and tibiae of female Balb/C mice were isolated and rinsed in sterile PBS. The ends of bones were cut and marrow harvested in complete media (RPMI 1640, 10% heat inactivated FBS, 1% penicillin/streptomycin, 2 mM L-glutamine, 1 mM sodium pyruvate, 25 mM HEPES, 50 μM 2-mercaptoethanol). Bone marrow cells were passed through a 70 μm strainer and centrifuged at 1000 rpm for 7 min. and resuspended in complete media supplemented with 100 ng/ml murine Flt3L to 2×10^6 cells/ml. 2 ml of cells were seeded in 6-well plates and 1 ml fresh media was added every two to three days. On day 9 of culture, non-adherent cells were washed in complete media and plated into 96-well plates at concentrations ranging from 0.5 to 2.5×10^5 cells/well.
Loxoribine (InvivoGen; San Diego, Calif.), polyIC (Sigma-Aldrich; St. Louis, Mo.), and formulated nucleic acids were diluted in PBS and added to either human PBMC or Flt3L DC cultures. Cells were incubated 24 h at 37° C. before supernatants were assayed for cytokines by ELISA.
Cytokine ELISA. All cytokines were quantified using sandwich ELISA kits according to the manufacturer's instructions. These were mouse and human IFN-α (PBL Biomedical; Piscataway, N.J.) and IL-6 (eBioscience; San Diego, Calif.).

Substance | immunostimulatory activity of the ODN alone
ODN 1826 | highly immunostimulatory
ODN 6295: CpG Type A ODN, phosphodiester: TAACGTTGAGGGGCAT (DNA, all phosphodiester, methylation of C not given here; formulated in lipid nanoparticles) | highly immunostimulatory
ODN M362: CpG Type C ODN, phosphodiester: TCGTCGTCGTTCGAACGACGTTGAT (DNA, all phosphodiester, methylation of C not given here; formulated in lipid nanoparticles) | highly immunostimulatory
